Patent US20240261274A1, “TREATMENT OF MYC-DRIVEN CANCERS WITH GSPT1 DEGRADERS” (MONTE ROSA THERAPEUTICS, INC., priority 2021, published 2024)

Columns and labels:
Format in all cases: cell-based
Conditions in all cases: MM1 S cells, 0.3, 3 and 30 μM, 6 hours
IKZF1 = molecular target: T1, IKZF1 (Homo sapiens, UniProt Q13422+Q96SW2); test: Selectivity western blot assay in MM1 S cells, IKZF1; set-up: key: A represents no degradation observed at 30 μM; B represents trace degradation at 30 μM (below 20%); C represents weak degradation at 30 μM (below 50%); D represents degradation at 30 μM (>90%); E represents degradation at 3 μM (>90%); F represents degradation at 0.3 μM (>90%)
T1 construct: endogenous in cells; host or cells: MM1 S (ATCC CRL-2974)
Protocol: (§1) MM1 S cells were purchased from ATCC (cat. Number CRL-2974), sub-cultured in 90% RPMI 1640 with 10% FBS, supplemented with 1×P/S and incubated at 37° C., 5% CO2. Compounds were stored as 10 mM DMSO stock. For the assay, MM1 S cells (3 million cells/well) were plated in 6-well plates and incubated over night. Cells were treated with respective compounds using a serial dilution: 0.3 μM, 3 μM and 30 μM as well as a vehicle only (DMSO) control for 6 hours. Media with suspension cells was subsequently transferred to 15 mL conical tubes, wells rinsed twice with ice-cold PBS and merged with cell suspension in respective 15 mL conical tube. Cells were spinned down, supernatant aspirated, pellets resuspended in ice-cold PBS and transferred to microtubes. Cells were spinned down, supernatant aspirated and pellets resuspended in 120 μL RIPA lysis buffer supplemented with protease and phosphatase inhibitors. Cell lysates were incubated on ice for 20 minutes followed by centrifugation at >20,000×g for 5 min. Supernatants were transferred to fresh microtubes and stored at −80° C. Total protein concentration was determined using a BCA assay with a BSA standard curve and concentration of all samples was adjusted to 1 mg/mL. 25 μL 4×LDS sample buffer supplemented with 100 mM DTT was added to 75 μL sample. Samples were centrifuged (8,000×g, 1 min) and incubated at 95° C. for 5 min followed by another centrifugation step (8,000×g, 1 min). 20 μL of each sample was loaded on a 4-12% gel alongside a protein molecular weight marker. Gels were run in the presence of MOPS buffer at 80 Volts for 30 min, followed by 120 Volts for 1.5 h and proteins subsequently transferred onto nitrocellulose membranes at 20 Volts for 7 min using an iBlot2 Gel Transfer Device. Membranes were then cut horizontally into two pieces, covering 80-50 kDa and 50-25 kDa. Blocking the membranes was performed by gently shaking in 5% (w/v) skim milk in TSB-T for 1 hr at room temperature. All primary antibodies were used at a 1/1000 in 5% (w/v) BSA dissolved in TBST and incubated with membranes over night at 4° C. After three washes with 1×TBST for 5 min, HRP-coupled secondary antibodies diluted in 5% (w/v) BSA/TBST (Goat Anti-Rb IgG, dil. 1/10,000; Goat Anti-Mouse IgG, dil. 1/5000) were added for 1 hr at room temperature. After three washes with 1×TBST (5 minutes each), membranes were incubated with ECL reagent for 1 min at room temperature. Chemiluminescence signals were then detected using a LAS-4000 system with default settings and signals quantified using Image Studio Lite software (version 5.2). Membrane parts previously incubated with antibody against CK1 alpha were stripped off antibodies by incubating with stripping buffer for 30 minutes followed by three washed with TBST (5 min each), blocking with 5% (w/v) skim milk for 1 hr, and incubation with primary antibody against uGAPDH overnight at 4° C. Subsequent washes, incubation with secondary antibody and signal acquisition were performed as described above.

IKZF3 = molecular target: T2, IKZF3 (Homo sapiens, UniProt Q96SW2+Q9UKT9); test: Selectivity western blot assay in MM1 S cells, IKZF3; set-up: key: A represents no degradation observed at 30 μM; B represents trace degradation at 30 μM (below 20%); C represents weak degradation at 30 μM (below 50%); D represents degradation at 30 μM (>90%); E represents degradation at 3 μM (>90%); F represents degradation at 0.3 μM (>90%)
T2 construct: endogenous in cells; host or cells: MM1 S (ATCC CRL-2974)
Protocol: as §1

CK1alpha = molecular target: T3, CK1alpha (Homo sapiens, UniProt P48729+Q96SW2); test: Selectivity western blot assay in MM1 S cells, CK1alpha; set-up: key: A represents no degradation observed at 30 μM; B represents trace degradation at 30 μM (below 20%); C represents weak degradation at 30 μM (below 50%); D represents degradation at 30 μM (>90%); E represents degradation at 3 μM (>90%); F represents degradation at 0.3 μM (>90%)
T3 construct: endogenous in cells; host or cells: MM1 S (ATCC CRL-2974)
Protocol: as §1

ZFP91 = molecular target: T4, ZFP91 (Homo sapiens, UniProt Q96JP5+Q96SW2); test: Selectivity western blot assay in MM1 S cells, ZFP91; set-up: key: A represents no degradation observed at 30 μM; B represents trace degradation at 30 μM (below 20%); C represents weak degradation at 30 μM (below 50%); D represents degradation at 30 μM (>90%); E represents degradation at 3 μM (>90%); F represents degradation at 0.3 μM (>90%)
T4 construct: endogenous in cells; host or cells: MM1 S (ATCC CRL-2974)
Protocol: as §1

GSPT1 = GSPT1 (Homo sapiens, UniProt P15170+Q96SW2); test: Selectivity western blot assay in MM1 S cells, GSPT1; set-up: endogenous in cells; host or cells: MM1 S (ATCC CRL-2974)
Protocol: as §1

T1 sequence (Q13422 whole entry): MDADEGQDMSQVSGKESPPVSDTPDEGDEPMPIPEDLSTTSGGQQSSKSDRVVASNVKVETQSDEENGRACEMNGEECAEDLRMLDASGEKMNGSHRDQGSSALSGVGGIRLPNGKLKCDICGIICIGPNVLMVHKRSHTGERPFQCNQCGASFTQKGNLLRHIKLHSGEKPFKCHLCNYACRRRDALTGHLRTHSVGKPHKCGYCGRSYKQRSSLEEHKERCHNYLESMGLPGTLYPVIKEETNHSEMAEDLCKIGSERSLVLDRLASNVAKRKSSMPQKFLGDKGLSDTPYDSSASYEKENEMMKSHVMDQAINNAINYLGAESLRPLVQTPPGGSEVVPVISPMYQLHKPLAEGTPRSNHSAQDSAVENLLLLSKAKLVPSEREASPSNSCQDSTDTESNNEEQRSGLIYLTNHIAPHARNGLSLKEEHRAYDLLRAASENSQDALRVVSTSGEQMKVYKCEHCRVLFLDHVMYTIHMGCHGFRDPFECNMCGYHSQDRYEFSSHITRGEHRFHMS
T1 sequence (Q96SW2 whole entry): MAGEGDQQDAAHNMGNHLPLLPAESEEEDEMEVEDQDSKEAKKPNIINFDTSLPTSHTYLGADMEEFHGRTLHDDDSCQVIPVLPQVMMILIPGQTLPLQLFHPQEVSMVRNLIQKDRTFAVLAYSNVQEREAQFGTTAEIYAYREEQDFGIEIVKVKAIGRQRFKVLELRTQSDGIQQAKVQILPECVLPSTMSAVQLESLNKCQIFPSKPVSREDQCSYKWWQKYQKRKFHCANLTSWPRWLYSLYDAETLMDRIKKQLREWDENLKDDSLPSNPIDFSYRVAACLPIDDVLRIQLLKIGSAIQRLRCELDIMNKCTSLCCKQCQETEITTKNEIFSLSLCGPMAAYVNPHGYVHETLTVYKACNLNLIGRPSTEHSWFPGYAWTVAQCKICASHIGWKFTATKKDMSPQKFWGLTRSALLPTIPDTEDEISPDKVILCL
T1 sequence (Q16531 whole entry partner): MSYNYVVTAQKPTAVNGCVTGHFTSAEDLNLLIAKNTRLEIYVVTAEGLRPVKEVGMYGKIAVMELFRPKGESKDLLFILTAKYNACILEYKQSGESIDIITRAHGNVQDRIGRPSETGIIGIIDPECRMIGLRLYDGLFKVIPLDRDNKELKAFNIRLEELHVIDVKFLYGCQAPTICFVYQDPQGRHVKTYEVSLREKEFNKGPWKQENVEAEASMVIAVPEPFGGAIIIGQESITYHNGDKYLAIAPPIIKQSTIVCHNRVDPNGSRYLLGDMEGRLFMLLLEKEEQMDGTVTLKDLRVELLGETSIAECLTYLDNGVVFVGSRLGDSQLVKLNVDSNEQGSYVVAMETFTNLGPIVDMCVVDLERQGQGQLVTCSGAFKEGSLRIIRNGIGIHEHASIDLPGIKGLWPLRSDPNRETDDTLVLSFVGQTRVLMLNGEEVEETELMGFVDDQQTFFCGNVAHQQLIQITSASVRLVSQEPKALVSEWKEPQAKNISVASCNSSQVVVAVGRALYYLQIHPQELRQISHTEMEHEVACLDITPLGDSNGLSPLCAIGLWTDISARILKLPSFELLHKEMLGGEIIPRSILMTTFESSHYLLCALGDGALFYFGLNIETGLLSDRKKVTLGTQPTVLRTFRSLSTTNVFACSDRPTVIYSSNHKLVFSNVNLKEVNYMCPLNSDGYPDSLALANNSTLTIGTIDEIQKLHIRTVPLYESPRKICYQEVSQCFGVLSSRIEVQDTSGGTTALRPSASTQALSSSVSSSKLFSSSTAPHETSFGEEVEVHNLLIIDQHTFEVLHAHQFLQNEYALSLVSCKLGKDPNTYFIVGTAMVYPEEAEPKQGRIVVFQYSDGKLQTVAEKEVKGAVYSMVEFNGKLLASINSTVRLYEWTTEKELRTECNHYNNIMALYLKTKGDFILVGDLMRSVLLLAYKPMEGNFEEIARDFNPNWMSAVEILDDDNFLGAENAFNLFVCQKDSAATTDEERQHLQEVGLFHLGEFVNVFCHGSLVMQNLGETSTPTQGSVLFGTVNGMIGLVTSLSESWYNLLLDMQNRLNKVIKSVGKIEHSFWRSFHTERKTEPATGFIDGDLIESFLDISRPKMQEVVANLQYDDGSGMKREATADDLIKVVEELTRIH
T4 sequence (Q96JP5 whole entry): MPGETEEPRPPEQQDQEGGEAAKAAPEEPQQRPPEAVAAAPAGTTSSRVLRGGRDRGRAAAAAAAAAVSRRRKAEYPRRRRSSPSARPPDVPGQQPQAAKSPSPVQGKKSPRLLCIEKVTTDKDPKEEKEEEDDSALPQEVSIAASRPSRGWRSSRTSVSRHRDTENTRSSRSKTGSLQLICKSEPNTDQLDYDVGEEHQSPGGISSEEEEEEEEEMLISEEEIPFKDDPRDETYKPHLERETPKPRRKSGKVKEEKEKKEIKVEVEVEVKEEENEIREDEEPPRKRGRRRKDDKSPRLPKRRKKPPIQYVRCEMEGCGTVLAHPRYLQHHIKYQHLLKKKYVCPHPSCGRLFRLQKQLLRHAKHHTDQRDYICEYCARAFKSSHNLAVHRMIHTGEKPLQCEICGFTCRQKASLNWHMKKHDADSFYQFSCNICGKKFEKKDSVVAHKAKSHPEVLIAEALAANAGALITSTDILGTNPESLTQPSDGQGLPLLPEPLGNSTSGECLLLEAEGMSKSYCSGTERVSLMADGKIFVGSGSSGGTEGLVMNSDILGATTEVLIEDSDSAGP
T4 sequence (Q96SW2 whole entry): as the sequence (Q96SW2 whole entry) above
T4 sequence (Q16531 whole entry partner): as the sequence (Q16531 whole entry partner) above
T2 sequence (Q9UKT9 whole entry): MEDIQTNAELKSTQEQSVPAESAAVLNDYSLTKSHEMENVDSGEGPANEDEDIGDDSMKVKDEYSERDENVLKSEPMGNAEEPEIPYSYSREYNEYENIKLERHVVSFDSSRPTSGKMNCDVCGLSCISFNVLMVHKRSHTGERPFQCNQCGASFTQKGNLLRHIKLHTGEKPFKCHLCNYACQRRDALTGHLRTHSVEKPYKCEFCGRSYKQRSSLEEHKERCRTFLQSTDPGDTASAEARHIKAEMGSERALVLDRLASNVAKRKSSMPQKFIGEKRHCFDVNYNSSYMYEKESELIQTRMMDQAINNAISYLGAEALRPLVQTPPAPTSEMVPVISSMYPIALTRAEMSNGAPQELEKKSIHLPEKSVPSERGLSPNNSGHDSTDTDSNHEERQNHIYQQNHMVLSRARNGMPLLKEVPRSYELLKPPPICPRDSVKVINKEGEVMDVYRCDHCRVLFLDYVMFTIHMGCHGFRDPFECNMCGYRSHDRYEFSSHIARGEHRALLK
T2 sequence (Q96SW2 whole entry): as the sequence (Q96SW2 whole entry) above
T2 sequence (Q16531 whole entry partner): as the sequence (Q16531 whole entry partner) above
Sequence of GSPT1 (P15170 whole entry): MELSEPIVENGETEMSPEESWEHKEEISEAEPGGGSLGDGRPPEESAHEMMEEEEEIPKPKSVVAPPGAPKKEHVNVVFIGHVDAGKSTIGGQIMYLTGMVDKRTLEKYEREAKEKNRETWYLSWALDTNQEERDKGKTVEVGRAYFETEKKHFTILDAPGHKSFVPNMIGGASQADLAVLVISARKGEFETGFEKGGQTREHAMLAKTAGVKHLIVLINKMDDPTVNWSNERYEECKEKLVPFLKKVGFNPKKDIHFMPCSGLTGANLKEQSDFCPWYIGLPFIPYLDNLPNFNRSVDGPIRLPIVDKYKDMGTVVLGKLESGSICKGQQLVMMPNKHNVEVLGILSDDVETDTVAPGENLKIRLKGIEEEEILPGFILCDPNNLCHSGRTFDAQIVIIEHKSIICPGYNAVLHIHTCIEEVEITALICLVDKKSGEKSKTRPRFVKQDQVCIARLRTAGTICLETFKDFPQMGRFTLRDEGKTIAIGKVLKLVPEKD
Sequence of GSPT1 (Q96SW2 whole entry): as the sequence (Q96SW2 whole entry) above
Sequence of GSPT1 (Q16531 whole entry partner): as the sequence (Q16531 whole entry partner) above
T3 sequence (P48729 whole entry): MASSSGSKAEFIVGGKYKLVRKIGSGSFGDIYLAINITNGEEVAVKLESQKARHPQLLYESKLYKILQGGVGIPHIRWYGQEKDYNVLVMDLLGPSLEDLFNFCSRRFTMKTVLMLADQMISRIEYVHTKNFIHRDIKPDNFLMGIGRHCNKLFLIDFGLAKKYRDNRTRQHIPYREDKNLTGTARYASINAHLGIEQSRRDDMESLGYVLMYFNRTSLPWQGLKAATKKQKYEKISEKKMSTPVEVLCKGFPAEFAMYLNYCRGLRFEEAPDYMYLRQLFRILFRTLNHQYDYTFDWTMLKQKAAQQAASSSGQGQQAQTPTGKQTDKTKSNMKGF
T3 sequence (Q96SW2 whole entry): as the sequence (Q96SW2 whole entry) above
T3 sequence (Q16531 whole entry partner): as the sequence (Q16531 whole entry partner) above

Row | IKZF1 degradation (IKZF1) | IKZF3 degradation (IKZF3) | ZFP91 degradation (ZFP91) | Compound | CK1alpha degradation (CK1alpha) | GSPT1 degradation (GSPT1)
1 | A | A | A | Cc1ccc(NC(=O)NCc2ccc3c(c2)C(=O)N(C2CCC(=O)NC2=O)C3)c(Cl)c1Cl (centres unmarked) [Compound 87] | A | E (E represents degradation at 3 μM (>90%))
2 | A | A | A | Cc1cc(C)c(NC(=O)NCc2ccc3c(c2)C(=O)N(C2CCC(=O)NC2=O)C3)cc1Cl (centres unmarked) [Compound 85] | B (B represents trace degradation at 30 μM (below 20%)) | E (E represents degradation at 3 μM (>90%))
3 | A | A | A | Cc1c(Cl)cc(NC(=O)NCc2ccc3c(c2)C(=O)N(C2CCC(=O)NC2=O)C3)cc1CN1CCOCC1 (centres unmarked) [Compound 82] | A | F (F represents degradation at 0.3 μM (>90%))
4 | A | A | A | Cc1c(Cl)cc(NC(=O)NCc2ccc3c(c2)C(=O)N(C2CCC(=O)NC2=O)C3)cc1CN(C)C (centres unmarked) [Compound 75] | A | E (E represents degradation at 3 μM (>90%))
5 | A | A |  | O=C1CCC(N2Cc3ccc(COC(=O)Nc4ccc(-c5ccccc5)nc4)cc3C2=O)C(=O)N1 (centres unmarked) [Compound 242] | B (B represents trace degradation at 30 μM (below 20%)) | F (F represents degradation at 0.3 μM (>90%))

Row | Compound | IKZF1 degradation (IKZF1) | IKZF3 degradation (IKZF3) | ZFP91 degradation (ZFP91) | CK1alpha degradation (CK1alpha) | GSPT1 degradation (GSPT1)
6 | CC(C)(C)c1ccc(NC(=O)OCc2ccc3c(c2)C(=O)N(C2CCC(=O)NC2=O)C3)cn1 (centres unmarked) [Compound 243] | A | B (B represents trace degradation at 30 μM (below 20%)) |  | C (C represents weak degradation at 30 μM (below 50%)) | F (F represents degradation at 0.3 μM (>90%))
7 | Cc1ncc(NC(=O)OCc2ccc3c(c2)C(=O)N(C2CCC(=O)NC2=O)C3)cc1Cl (centres unmarked) [Compound 206] | A | B (B represents trace degradation at 30 μM (below 20%)) |  | A | F (F represents degradation at 0.3 μM (>90%))
8 | CCc1ncc(NC(=O)OCc2ccc3c(c2)C(=O)N(C2CCC(=O)NC2=O)C3)cc1C (centres unmarked) [Compound 249] | A | A | B (B represents trace degradation at 30 μM (below 20%)) | B (B represents trace degradation at 30 μM (below 20%)) | F (F represents degradation at 0.3 μM (>90%))
9 | CC(C)(C)c1ccc(NC(=O)OCc2ccc3c(c2)C(=O)N(C2CCC(=O)NC2=O)C3)cc1 (centres unmarked) [Compound 247] | A | A | B (B represents trace degradation at 30 μM (below 20%)) | B (B represents trace degradation at 30 μM (below 20%)) | F (F represents degradation at 0.3 μM (>90%))
10 | O=C1CCC(N2Cc3ccc(CNC(=O)Nc4cccc(CN5CCOCC5)c4)cc3C2=O)C(=O)N1 (centres unmarked) [Compound 105] | B (B represents trace degradation at 30 μM (below 20%)) | A | B (B represents trace degradation at 30 μM (below 20%)) | A | E (E represents degradation at 3 μM (>90%))
11 | O=C1CCC(N2Cc3ccc(COC(=O)Nc4ccc(N5CCCCC5)nc4)cc3C2=O)C(=O)N1 (centres unmarked) [Compound 215] | A | B (B represents trace degradation at 30 μM (below 20%)) |  | C (C represents weak degradation at 30 μM (below 50%)) | F (F represents degradation at 0.3 μM (>90%))
12 | Cc1c(Cl)cc(NC(=O)NCc2ccc3c(c2)C(=O)N(C2CCC(=O)NC2=O)C3)cc1CC1COCOC1 (centres unmarked) [Compound 132] | A | A | C (C represents weak degradation at 30 μM (below 50%)) | C (C represents weak degradation at 30 μM (below 50%)) | F (F represents degradation at 0.3 μM (>90%))
13 | Cc1c(Cl)cc(NC(=O)OCc2ccc3c(c2)C(=O)N(C2CCC(=O)NC2=O)C3)cc1OCCN1CCOCC1 (centres unmarked) [Compound 248] | A | B (B represents trace degradation at 30 μM (below 20%)) |  | B (B represents trace degradation at 30 μM (below 20%)) | F (F represents degradation at 0.3 μM (>90%))
14 | COc1cc(C)c(Cl)cc1NC(=O)OCc1ccc2c(c1)C(=O)N(C1CCC(=O)NC1=O)C2 (centres unmarked) [Compound 201] | A | B (B represents trace degradation at 30 μM (below 20%)) | A | B (B represents trace degradation at 30 μM (below 20%)) | F (F represents degradation at 0.3 μM (>90%))
